The target of the test is human F508del-CFTR (Homo sapiens, UniProt P13569, DEL508-508). Briefly: F508del-CFTR cell surface expression (corrector activity), DiscoveRx ß-galactosidase complementation chemiluminescence assay in recombinant U2OS cell line.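 On all read-outs here: U2OS cells co-expressing ProLink-tagged F508del-CFTR and a membrane-anchored enzyme acceptor, where more surface CFTR restores β-galactosidase activity measured by chemiluminescence.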 As to conditions: U2OS cell line, 16h compound incubation; for EC50: EC50, F508del-CFTR cell surface expression, geomean values; for Emax: U2OS, in relation to the Emax of the corrector lumacaftor (=100%), arithmetic mean values.

Molecules are shown by their SMILES.

Sequence of human F508del-CFTR (P13569 with tags, fused parts or gaps DEL508-508): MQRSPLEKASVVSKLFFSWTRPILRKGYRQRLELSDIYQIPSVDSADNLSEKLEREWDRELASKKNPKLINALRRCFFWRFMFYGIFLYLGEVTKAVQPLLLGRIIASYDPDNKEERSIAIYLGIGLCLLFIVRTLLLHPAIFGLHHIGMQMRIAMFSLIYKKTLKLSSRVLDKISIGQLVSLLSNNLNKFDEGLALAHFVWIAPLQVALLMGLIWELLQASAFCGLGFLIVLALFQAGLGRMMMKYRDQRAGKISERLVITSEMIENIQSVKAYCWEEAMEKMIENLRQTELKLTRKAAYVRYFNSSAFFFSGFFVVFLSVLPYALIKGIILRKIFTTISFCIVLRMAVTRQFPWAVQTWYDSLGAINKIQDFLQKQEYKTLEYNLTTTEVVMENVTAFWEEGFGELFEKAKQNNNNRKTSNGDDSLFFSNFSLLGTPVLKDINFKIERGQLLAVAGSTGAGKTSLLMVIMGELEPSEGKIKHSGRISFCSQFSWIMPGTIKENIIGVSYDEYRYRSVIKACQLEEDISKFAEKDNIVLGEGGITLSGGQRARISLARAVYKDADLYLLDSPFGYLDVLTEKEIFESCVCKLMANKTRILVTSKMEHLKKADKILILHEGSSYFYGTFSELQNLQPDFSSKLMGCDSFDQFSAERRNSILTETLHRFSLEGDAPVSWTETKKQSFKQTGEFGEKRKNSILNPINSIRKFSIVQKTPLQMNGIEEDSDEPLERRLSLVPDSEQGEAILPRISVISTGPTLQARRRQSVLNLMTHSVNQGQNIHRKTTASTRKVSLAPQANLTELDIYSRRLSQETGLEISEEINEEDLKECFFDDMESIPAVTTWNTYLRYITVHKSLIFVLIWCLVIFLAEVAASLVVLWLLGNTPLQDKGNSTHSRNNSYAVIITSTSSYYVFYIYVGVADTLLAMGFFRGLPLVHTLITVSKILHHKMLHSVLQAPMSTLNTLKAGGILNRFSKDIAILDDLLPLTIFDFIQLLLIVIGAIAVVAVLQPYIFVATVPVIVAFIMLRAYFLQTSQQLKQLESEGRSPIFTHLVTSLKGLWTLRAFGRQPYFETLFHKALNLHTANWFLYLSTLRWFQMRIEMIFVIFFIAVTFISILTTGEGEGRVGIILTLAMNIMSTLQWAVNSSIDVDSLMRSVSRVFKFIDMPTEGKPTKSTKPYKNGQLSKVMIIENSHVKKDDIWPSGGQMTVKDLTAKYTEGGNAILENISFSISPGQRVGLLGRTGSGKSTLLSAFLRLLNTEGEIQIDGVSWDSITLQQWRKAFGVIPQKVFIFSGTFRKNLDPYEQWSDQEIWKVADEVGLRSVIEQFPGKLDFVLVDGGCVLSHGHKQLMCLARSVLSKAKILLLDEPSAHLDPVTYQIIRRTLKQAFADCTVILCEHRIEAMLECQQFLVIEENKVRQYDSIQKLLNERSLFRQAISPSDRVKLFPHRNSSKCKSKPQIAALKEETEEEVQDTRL

Turning to `CC(C)C[C@H]1C(=O)N2CCOC[C@@H]2C(=O)N[C@H](Cc2ccccc2)COc2cnc3ccccc3c2C(=O)N[C@H](C(=O)NCCc2csc(C(C)C)n2)CC(=O)N1C` [Example 46, (9S,13S,19aR,22R)-22-benzyl-13-isobutyl-N-(2-(2-isopropylthiazol-4-yl)ethyl)-12-methyl-7,11,14,20-tetraoxo-7,8,9,10,11,12,13,14,16,17,19,19a,20,21,22,23-hexadecahydro-[1,4]oxazino[3′,4′:6,7][1]oxa[4,7,10,14]tetraazacycloheptadecino[17,16-c]quinoline-9-carboxamide], the 50% effective concentration (EC50) – broadly, the concentration giving half of the maximal effect – is 679 nM and the Emax – broadly, the size of the effect at its maximum, as opposed to the concentration needed – came out at 137%.

For the compound `CCc1ccc(CCNC(=O)[C@@H]2CC(=O)N(C)[C@@H](CC(C)C)C(=O)N3CCOC[C@@H]3C(=O)N[C@H](Cc3ccccc3)COc3cnc4ccccc4c3C(=O)N2)cc1` [Example 47, (9S,13S,19aR,22R)-22-benzyl-N-(4-ethylphenethyl)-13-isobutyl-12-methyl-7,11,14,20-tetraoxo-7,8,9,10,11,12,13,14,16,17,19,19a,20,21,22,23-hexadecahydro-[1,4]oxazino[3′,4′:6,7][1]oxa[4,7,10,14]tetraazacycloheptadecino[17,16-c]quinoline-9-carboxamide], the half-maximal effective concentration (EC50) turned out to be 213 nM and the maximal response (Emax) is 247%.

Consider `CC(C)C[C@H]1C(=O)N2CCOC[C@@H]2C(=O)N[C@H](Cc2ccccc2)COc2cnc3ccccc3c2C(=O)N[C@H](C(=O)NCCc2ccc(C(C)(C)C)cc2)CC(=O)N1C` [Example 48, (9S,13S,19aR,22R)-22-benzyl-N-(4-(tert-butyl)phenethyl)-13-isobutyl-12-methyl-7,11,14,20-tetraoxo-7,8,9,10,11,12,13,14,16,17,19,19a,20,21,22,23-hexadecahydro-[1,4]oxazino[3′,4′:6,7][1]oxa[4,7,10,14]tetraazacycloheptadecino[17,16-c]quinoline-9-carboxamide], for which the half-maximal effective concentration (EC50) came to 409 nM and the maximal response (Emax) was 151%.

As to `CC(C)C[C@H]1C(=O)N2CCOC[C@@H]2C(=O)N[C@H](Cc2ccccc2)COc2cnc3ccccc3c2C(=O)N[C@H](C(=O)NCCc2ccc(Br)cc2)CC(=O)N1C` [Example 49, (9S,13S,19aR,22R)-22-benzyl-N-(4-bromophenethyl)-13-isobutyl-12-methyl-7,11,14,20-tetraoxo-7,8,9,10,11,12,13,14,16,17,19,19a,20,21,22,23-hexadecahydro-[1,4]oxazino[3′,4′:6,7][1]oxa[4,7,10,14]tetraazacycloheptadecino[17,16-c]quinoline-9-carboxamide], the concentration for a half-maximal effect (EC50) came out at 347 nM and the maximal response (Emax) worked out at 136%.

Consider `CC(C)C[C@H]1C(=O)N2CCOC[C@@H]2C(=O)N[C@H](Cc2ccccc2)COc2cnc3ccccc3c2C(=O)N[C@H](C(=O)NCCc2ccccc2F)CC(=O)N1C` [Example 50, (9S,13S,19aR,22R)-22-benzyl-N-(2-fluorophenethyl)-13-isobutyl-12-methyl-7,11,14,20-tetraoxo-7,8,9,10,11,12,13,14,16,17,19,19a,20,21,22,23-hexadecahydro-[1,4]oxazino[3′,4′:6,7][1]oxa[4,7,10,14]tetraazacycloheptadecino[17,16-c]quinoline-9-carboxamide], for which the EC50 was 558 nM and the Emax turned out to be 256%.

As to `CC(C)C[C@H]1C(=O)N2CCOC[C@@H]2C(=O)N[C@H](Cc2ccccc2)COc2cnc3ccccc3c2C(=O)N[C@H](C(=O)NCCc2cccc(Cl)c2)CC(=O)N1C` [Example 51, (9S,13S,19aR,22R)-22-benzyl-N-(3-chlorophenethyl)-13-isobutyl-12-methyl-7,11,14,20-tetraoxo-7,8,9,10,11,12,13,14,16,17,19,19a,20,21,22,23-hexadecahydro-[1,4]oxazino[3′,4′:6,7][1]oxa[4,7,10,14]tetraazacycloheptadecino[17,16-c]quinoline-9-carboxamide], the EC50 is 352 nM and the maximal response (Emax) came to 187%.

For `CC(C)C[C@H]1C(=O)N2CCOC[C@@H]2C(=O)N[C@H](Cc2ccccc2)COc2cnc3ccccc3c2C(=O)N[C@H](C(=O)NCCc2cccc(Br)c2)CC(=O)N1C` [Example 52, (9S,13S,19aR,22R)-22-benzyl-N-(3-bromophenethyl)-13-isobutyl-12-methyl-7,11,14,20-tetraoxo-7,8,9,10,11,12,13,14,16,17,19,19a,20,21,22,23-hexadecahydro-[1,4]oxazino[3′,4′:6,7][1]oxa[4,7,10,14]tetraazacycloheptadecino[17,16-c]quinoline-9-carboxamide], the EC50 came to 348 nM and the Emax was found to be 176%.

With `CC(C)C[C@H]1C(=O)N2CCOC[C@@H]2C(=O)N[C@H](Cc2ccccc2)COc2cnc3ccccc3c2C(=O)N[C@H](C(=O)NCCc2ccc3c(c2)OCCO3)CC(=O)N1C` [Example 53, (9S,13S,19aR,22R)-22-benzyl-N-(2-(2,3-dihydrobenzo[b][1,4]dioxin-6-yl)ethyl)-13-isobutyl-12-methyl-7,11,14,20-tetraoxo-7,8,9,10,11,12,13,14,16,17,19,19a,20,21,22,23-hexadecahydro-[1,4]oxazino[3′,4′:6,7][1]oxa[4,7,10,14]tetraazacycloheptadecino[17,16-c]quinoline-9-carboxamide], the EC50 is 596 nM and the Emax was determined as 404%.

As to `CC(C)C[C@H]1C(=O)N2CCOC[C@@H]2C(=O)N[C@H](Cc2ccccc2)COc2cnc3ccccc3c2C(=O)N[C@H](C(=O)NCCc2ccc3c(c2)OCC3)CC(=O)N1C` [Example 54, (9S,13S,19aR,22R)-22-benzyl-N-(2-(2,3-dihydrobenzofuran-6-yl)ethyl)-13-isobutyl-12-methyl-7,11,14,20-tetraoxo-7,8,9,10,11,12,13,14,16,17,19,19a,20,21,22,23-hexadecahydro-[1,4]oxazino[3′,4′:6,7][1]oxa[4,7,10,14]tetraazacycloheptadecino[17,16-c]quinoline-9-carboxamide], the concentration for a half-maximal effect (EC50) stood at 558 nM and the Emax was 373%.

In the case of `CC(C)C[C@H]1C(=O)N2CCOC[C@@H]2C(=O)N[C@H](Cc2ccccc2)COc2cnc3ccccc3c2C(=O)N[C@H](C(=O)NCCc2ccc(-n3nccn3)cc2)CC(=O)N1C` [Example 55, (9S,13S,19aR,22R)-N-(4-(2H-1,2,3-triazol-2-yl)phenethyl)-22-benzyl-13-isobutyl-12-methyl-7,11,14,20-tetraoxo-7,8,9,10,11,12,13,14,16,17,19,19a,20,21,22,23-hexadecahydro-[1,4]oxazino[3′,4′:6,7][1]oxa[4,7,10,14]tetraazacycloheptadecino[17,16-c]quinoline-9-carboxamide], the EC50 is 945 nM and the maximal response (Emax) came to 245%.

`CC(C)C[C@H]1C(=O)N2CCOC[C@@H]2C(=O)N[C@H](Cc2ccccc2)COc2cnc3ccccc3c2C(=O)N[C@H](C(=O)NCCc2cccc(-n3nccn3)c2)CC(=O)N1C` [Example 56, (9S,13S,19aR,22R)-N-(3-(2H-1,2,3-triazol-2-yl)phenethyl)-22-benzyl-13-isobutyl-12-methyl-7,11,14,20-tetraoxo-7,8,9,10,11,12,13,14,16,17,19,19a,20,21,22,23-hexadecahydro-[1,4]oxazino[3′,4′:6,7][1]oxa[4,7,10,14]tetraazacycloheptadecino[17,16-c]quinoline-9-carboxamide]: the EC50 was 764 nM and the Emax is 256%.

Regarding `COc1cc(CCNC(=O)[C@@H]2CC(=O)N(C)[C@@H](CC(C)C)C(=O)N3CCOC[C@@H]3C(=O)N[C@H](Cc3ccccc3)COc3cnc4ccccc4c3C(=O)N2)cc(OC)c1` [Example 57, (9S,13S,19aR,22R)-22-benzyl-N-(3,5-dimethoxyphenethyl)-13-isobutyl-12-methyl-7,11,14,20-tetraoxo-7,8,9,10,11,12,13,14,16,17,19,19a,20,21,22,23-hexadecahydro-[1,4]oxazino[3′,4′:6,7][1]oxa[4,7,10,14]tetraazacycloheptadecino[17,16-c]quinoline-9-carboxamide], the concentration for a half-maximal effect (EC50) worked out at 414 nM and the Emax came out at 315%.

For `CC(C)C[C@H]1C(=O)N2CCOC[C@@H]2C(=O)N[C@H](Cc2ccccc2)COc2cnc3ccccc3c2C(=O)N[C@H](C(=O)NCCc2ccccc2)CC(=O)N1C` [Example 58, (9S,13S,19aR,22R)-22-benzyl-13-isobutyl-12-methyl-7,11,14,20-tetraoxo-N-phenethyl-7,8,9,10,11,12,13,14,16,17,19,19a,20,21,22,23-hexadecahydro-[1,4]oxazino[3′,4′:6,7][1]oxa[4,7,10,14]tetraazacycloheptadecino[17,16-c]quinoline-9-carboxamide], the concentration giving a half-maximal response (EC50) was found to be 759 nM and the Emax is 175%.

With `COc1ccc(CCNC(=O)[C@@H]2CC(=O)N(C)[C@@H](CC(C)C)C(=O)N3CCOC[C@@H]3C(=O)N[C@H](Cc3ccccc3)COc3cnc4ccccc4c3C(=O)N2)c(F)c1` [Example 59, (9S,13S,19aR,22R)-22-benzyl-N-(2-fluoro-4-methoxyphenethyl)-13-isobutyl-12-methyl-7,11,14,20-tetraoxo-7,8,9,10,11,12,13,14,16,17,19,19a,20,21,22,23-hexadecahydro-[1,4]oxazino[3′,4′:6,7][1]oxa[4,7,10,14]tetraazacycloheptadecino[17,16-c]quinoline-9-carboxamide], the 50% effective concentration (EC50) is 772 nM and the Emax was determined as 237%.

Regarding `Cc1ccc(CCNC(=O)[C@@H]2CC(=O)N(C)[C@@H](CC(C)C)C(=O)N3CCOC[C@@H]3C(=O)N[C@H](Cc3ccccc3)COc3cnc4ccccc4c3C(=O)N2)cc1` [Example 60, (9S,13S,19aR,22R)-22-benzyl-13-isobutyl-12-methyl-N-(4-methylphenethyl)-7,11,14,20-tetraoxo-7,8,9,10,11,12,13,14,16,17,19,19a,20,21,22,23-hexadecahydro-[1,4]oxazino[3′,4′:6,7][1]oxa[4,7,10,14]tetraazacycloheptadecino[17,16-c]quinoline-9-carboxamide], the EC50 stood at 662 nM and the Emax worked out at 228%.

The values are drawn from patent publication US20240208992A1, “MACROCYCLES AS CFTR MODULATORS” (Idorsia Pharmaceuticals Ltd, priority 2021, published 2024).
